# Measurements published in ChEMBL document CHEMBL1139038, “Design and synthesis of 3-substituted benzamide derivatives as Bcr-Abl kinase inhibitors” (Bioorg Med Chem Lett, 2006).
# Experiments:
# K562 = assay: Antiproliferative activity against K562 cells; type: functional, cell-based; conditions: Homo sapiens
# U-937 = assay: Antiproliferative activity against U937 cells; type: functional, cell-based; conditions: Homo sapiens
IC50 (K562),IC50 (U-937),SMILES
0.01 µM,6 µM,Cc1ccc(NC(=O)c2ccc(CN3CCN(C)CC3)c(I)c2)cc1Nc1nccc(-c2cccnc2)n1
–,4 µM,Cc1ccc(NC(=O)c2ccc(CN3CCN(C)CC3)c(C(F)(F)F)c2)cc1Nc1nccc(-c2cccnc2)n1
–,8 µM,Cc1ccc(NC(=O)c2ccc(CN3CCN(C)CC3)c(F)c2)cc1Nc1nccc(-c2cccnc2)n1
–,5 µM,Cc1ccc(NC(=O)c2ccc(CN3CCN(C)CC3)c(C(F)(F)F)c2)cc1Nc1nccc(-c2cncnc2)n1
0.004 µM,9 µM,Cc1ccc(NC(=O)c2ccc(CN3CC[C@@H](N(C)C)C3)c(C(F)(F)F)c2)cc1Nc1nccc(-c2cncnc2)n1
0.017 µM,> 100 µM,Cc1ccc(NC(=O)c2ccc(CN3CC(N(C)C)C3)c(C(F)(F)F)c2)cc1Nc1nccc(-c2cncnc2)n1
0.01 µM,9 µM,Cc1ccc(NC(=O)c2ccc(CN3CCN(C)CC3)c(Cl)c2)cc1Nc1nccc(-c2cccnc2)n1
–,5 µM,Cc1ccc(NC(=O)c2ccc(CN3CCN(C)CC3)c(Br)c2)cc1Nc1nccc(-c2cccnc2)n1
0.011 µM,20 µM,Cc1ccc(NC(=O)c2ccc(CN3CC[C@H](CN(C)C)C3)c(C(F)(F)F)c2)cc1Nc1nccc(-c2cncnc2)n1
0.009 µM,> 100 µM,Cc1ccc(NC(=O)c2ccc(CN3CC[C@@H](CN(C)C)C3)c(C(F)(F)F)c2)cc1Nc1nccc(-c2cncnc2)n1
0.011 µM,10 µM,Cc1ccc(NC(=O)c2ccc(CN3CC[C@H](N(C)C)C3)c(C(F)(F)F)c2)cc1Nc1nccc(-c2cncnc2)n1 [BAFETINIB]
–,14 µM,Cc1ccc(NC(=O)c2ccc(CN3CCN(C)CC3)cc2)cc1Nc1nccc(-c2cccnc2)n1 [IMATINIB]
